Reference: patent US10251395B2, “Substituted furano-/thienocycloalkylamino-2-pyrimidine derivatives and use thereof for controlling undesired plant growth” (Bayer CropScience Aktiengesellschaft, priority 2015, dated 2019)

How the values were obtained:
Viola tricolor [1] = assay: Post-emergence herbicidal effect; format: in vivo; details: assessed visually after about 3 weeks vs untreated controls
How it was run: (§1)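 Greenhouse post-emergence spray: one-leaf seedlings, sandy loam, aqueous WP/EC formulation with 0.2% wetting agent at 600–800 L/ha. Visual assessment after ~3 weeks, as % activity relative to untreated controls.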

Amaranthus retroflexus [2] = assay: Post-emergence herbicidal effect; format: in vivo; details: assessed visually after about 3 weeks vs untreated controls
How it was run: as §1

logP (HCOOH) = format: physicochemical; details: for chromatographic logP: HCOOH (formic acid)
Description: Table 2 (physicochemical characterization of selected synthesis examples)

Stellaria media [3] = assay: Pre-emergence herbicidal effect; format: in vivo; details: scored visually after 3 weeks
How it was run: (§2)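 Visual damage score in % after 3 weeks in the greenhouse, relative to untreated controls (0% like control, 100% plants dead). Compounds were sprayed pre-emergence onto covering soil over seeds sown in sandy loam, as WP or EC in water at 600 to 800 L/ha plus 0.2% wetting agent.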

Polygonum convolvulus = assay: Pre-emergence herbicidal effect; format: in vivo; details: scored visually after 3 weeks
How it was run: as §2

Viola tricolor [4] = assay: Pre-emergence herbicidal effect; format: in vivo; details: scored visually after 3 weeks
How it was run: as §2

Amaranthus retroflexus [5] = assay: Pre-emergence herbicidal effect; format: in vivo; details: scored visually after 3 weeks
How it was run: as §2

Matricaria inodora [6] = assay: Pre-emergence herbicidal effect; format: in vivo; details: scored visually after 3 weeks
How it was run: as §2

Veronica persica [7] = assay: Pre-emergence herbicidal effect; format: in vivo; details: scored visually after 3 weeks
How it was run: as §2

Stellaria media [8] = assay: Post-emergence herbicidal effect; format: in vivo; details: assessed visually after about 3 weeks vs untreated controls
How it was run: as §1

Veronica persica [9] = assay: Post-emergence herbicidal effect; format: in vivo; details: assessed visually after about 3 weeks vs untreated controls
How it was run: as §1

Alopecurus myosuroides = assay: Pre-emergence herbicidal effect; format: in vivo; details: scored visually after 3 weeks
How it was run: as §2

Setaria viridis [10] = assay: Pre-emergence herbicidal effect; format: in vivo; details: scored visually after 3 weeks
How it was run: as §2

Ipomoea purpurea = assay: Post-emergence herbicidal effect; format: in vivo; details: 320 g/ha, assessed visually after about 3 weeks vs untreated controls
How it was run: as §1

Echinochloa crus-galli = assay: Pre-emergence herbicidal effect; format: in vivo; details: Dosage 320 g/ha, scored visually after 3 weeks
How it was run: as §2

Abutilon theophrasti = assay: Post-emergence herbicidal effect; format: in vivo; details: assessed visually after about 3 weeks vs untreated controls
How it was run: as §1

Setaria viridis [11] = assay: Post-emergence herbicidal effect; format: in vivo; details: 320 g/ha, assessed visually after about 3 weeks vs untreated controls
How it was run: as §1

Matricaria inodora [12] = assay: Post-emergence herbicidal effect; format: in vivo; details: assessed visually after about 3 weeks vs untreated controls
How it was run: as §1

Lolium multiflorum = assay: Pre-emergence herbicidal effect; format: in vivo; details: Dosage 320 g/ha, scored visually after 3 weeks
How it was run: as §2

Row | Compound | post-emergence efficacy VIOTR (Viola tricolor [1]; 320 g/ha) | post-emergence efficacy AMARE (Amaranthus retroflexus [2]; 320 g/ha) | logP (HCOOH) (logP (HCOOH)) | STEME pre-emergence efficacy (herbicidal activity) (Stellaria media [3]; Dosage 320 g/ha) | POLCO pre-emergence efficacy (herbicidal activity) (Polygonum convolvulus; Dosage 320 g/ha) | VIOTR pre-emergence efficacy (herbicidal activity) (Viola tricolor [4]; Dosage 320 g/ha) | AMARE pre-emergence efficacy (herbicidal activity) (Amaranthus retroflexus [5]; Dosage 320 g/ha) | MATIN pre-emergence efficacy (herbicidal activity) (Matricaria inodora [6]; Dosage 320 g/ha) | VERPE pre-emergence efficacy (herbicidal activity) (Veronica persica [7]; Dosage 320 g/ha) | post-emergence efficacy VIOTR (Viola tricolor [1]; 80 g/ha) | post-emergence efficacy VERPE (Veronica persica [9]; 320 g/ha) | STEME pre-emergence efficacy (herbicidal activity) (Stellaria media [3]; Dosage 80 g/ha) | VIOTR pre-emergence efficacy (herbicidal activity) (Viola tricolor [4]; Dosage 80 g/ha) | AMARE pre-emergence efficacy (herbicidal activity) (Amaranthus retroflexus [5]; Dosage 80 g/ha) | MATIN pre-emergence efficacy (herbicidal activity) (Matricaria inodora [6]; Dosage 80 g/ha) | VERPE pre-emergence efficacy (herbicidal activity) (Veronica persica [7]; Dosage 80 g/ha) | ALOMY pre-emergence efficacy (herbicidal activity) (Alopecurus myosuroides; Dosage 320 g/ha) | SETVI pre-emergence efficacy (herbicidal activity) (Setaria viridis [10]; Dosage 320 g/ha) | ECHCG pre-emergence efficacy (herbicidal activity) (Echinochloa crus-galli) | further results
1 | Cc1cc2c(s1)CCCC2Nc1nc(N)c([S+](C)[O-])c(C(F)(F)F)n1 (racemic) [compound 35] | 90% | 80% | oily; logP (HCOOH): 3.44; 1H NMR (CDCl3, 400 MHZ, δ in ppm): 1.85 (m, 3H, 3H of | 100% | 90% | 100% | 90% | 90% | 90% | – | – | – | – | – | – | – | – | – | – | –
2 | Nc1nc(NC2CCCc3sccc32)ncc1S(=O)(=O)C1CC1 (racemic) [compound 36] | 100% | – | solid; m.p.: 243.3° C.; logP (HCOOH): 2.12; 1H NMR (CDCl3, 400 MHZ, δ in ppm): | 100% | – | 100% | 100% | 100% | 100% | 100% | 80% | 100% | 100% | 100% | 100% | 90% | – | – | – | post-emergence efficacy STEME (Stellaria media [8]; 320 g/ha): 80%
3 | Cc1cc2c(s1)CCC2Nc1ncc(S(=O)(=O)C(C)C)c(N)n1 (racemic) [compound 63] | 90% | 40% | solid; logP (HCOOH): 2.40; 1H NMR (CDCl3, 400 MHZ, δ in ppm): 1.35 (d, 6H, 6H | 100% | 100% | 100% | – | 100% | – | 90% | – | 100% | 100% | – | 100% | – | 100% | 100% | – | post-emergence efficacy AMARE (Amaranthus retroflexus [2]; 80 g/ha): 10%; POLCO pre-emergence efficacy (herbicidal activity) (Polygonum convolvulus; Dosage 80 g/ha): 20%
4 | Cc1cc2c(s1)CCCC2Nc1ncc(C(=O)C(F)(F)F)c(N)n1 (racemic) [compound 72] | 100% | – | oily; logP (HCOOH): 3.90; 1H NMR (CDCl3, 400 MHZ, δ in ppm): 1.85 (m, 3H, 3H of | 100% | 100% | 100% | 100% | 100% | 100% | 80% | 80% | – | 100% | 80% | 100% | 100% | 90% | 100% | 80% | post-emergence efficacy PHBPU (Ipomoea purpurea): 80%; post-emergence efficacy VERPE (Veronica persica [9]; 80 g/ha): 80%; ALOMY pre-emergence efficacy (herbicidal activity) (Alopecurus myosuroides; Dosage 80 g/ha): 80%
5 | CNC(=O)c1cnc(NC2CCCc3sc(C)cc32)nc1N (racemic) [compound 266] | 90% | 100% | logP (HCOOH): 1.17; 1H NMR (CDCl3, 400 MHZ, δ in ppm): 1.90 (m, 3H, 3H of | 100% | – | 100% | 100% | 100% | 100% | 80% | 90% | 100% | – | 100% | – | 100% | – | 100% | 100% | post-emergence efficacy STEME (Stellaria media [8]; 80 g/ha): 80%; post-emergence efficacy STEME (Stellaria media [8]; 320 g/ha): 100%; post-emergence efficacy ABUTH (Abutilon theophrasti; 80 g/ha): 80%; post-emergence efficacy ABUTH (Abutilon theophrasti; 320 g/ha): 80%; post-emergence efficacy AMARE (Amaranthus retroflexus [2]; 80 g/ha): 90%; post-emergence efficacy SETVI (Setaria viridis [11]): 60%; post-emergence efficacy MATIN (Matricaria inodora [12]; 80 g/ha): 60%; post-emergence efficacy MATIN (Matricaria inodora [12]; 320 g/ha): 60%; post-emergence efficacy VERPE (Veronica persica [9]; 80 g/ha): 90%; LOLMU pre-emergence efficacy (herbicidal activity) (Lolium multiflorum): 60%; SETVI pre-emergence efficacy (herbicidal activity) (Setaria viridis [10]; Dosage 80 g/ha): 100%
6 | Cc1cc2c(s1)CCCC2Nc1ncc(F)c(N)n1 (stereo not drawn) [compound 12, 5-Fluoro-N2-(2-methyl-4,5,6,7-tetrahydro-1-benzothiophen-4-yl)pyrimidine-2,4-diamine] | – | – | – | 100% | 80% | 100% | 90% | 90% | 100% | – | – | – | – | – | – | – | 90% | 90% | – | chromatographic logP (logP (HCOOH)): 1.07
7 | CS(=O)(=O)c1cnc(NC2CCc3ccsc32)nc1N (stereo not drawn) [compound 33, N2-(5,6-Dihydro-4H-cyclopenta[b]thiophen-6-yl)-5-methylsulfonylpyrimidine-2,4-diamine] | 90% | – | – | 100% | 100% | 100% | 100% | 100% | 100% | 80% | – | 100% | 100% | 100% | 100% | 80% | – | – | 100% | post-emergence efficacy MATIN (Matricaria inodora [12]; 320 g/ha): 90%; chromatographic logP (logP (HCOOH)): 1.57; LOLMU pre-emergence efficacy (herbicidal activity) (Lolium multiflorum): 100%
